The results in this text go back to US11852971B2, “Compound, photosensitive resin composition including the same, photosensitive resin layer, color filter and display device” (SAMSUNG SDI CO., LTD., priority 2019, dated 2023).

The nature of data set [1]: Measurement of the shortest wavelength of full width at half maximum (FWHM) with respect to maximum absorption wavelength (absorption spectrum). It counts as physicochemical. The settings on record: 0.005 wt % in PGMEA; UV-1800. The text has this:
The shortest wavelength of the full width at half maximum (FWHM) with respect to the maximum absorption wavelengths denotes a wavelength having the smallest value (a) among the energy widths (Δλ) of the maximum absorption wavelength (b) in the absorption spectrum of a particular phthalocyanine compound. (Refer to the FIGURE)
Evaluation 1: Measurement of the Shortest Wavelength of Full Width at Half Maximum (FWHM) with respect to Maximum Absorption Wavelength
The compounds according to Synthesis Example 1 to Synthesis Example 21 and Comparative Synthesis Example 1 to Comparative Synthesis Example 6 were prepared at a concentration of 0.005 wt % using a diluting solvent (PGMEA). Absorption spectra were obtained for each of the phthalocyanine compounds according to Synthesis Example 1 to […] and Comparative Synthesis Example 1 to Comparative Synthesis Example 6, and the results are shown in Table 1 (UV-1800, SHTMADZU).

A short description of data set [2]: Solubility measurement in dilution solvent (PGMEA). It counts as physicochemical. Conditions: PGMEA added to 0.5 g compound, stirred 100 rpm, one hour, 25° C. Here is the method:
Evaluation 2: Solubility Measurement Solubility of the compounds according to Synthesis Examples 11 to 21 and Comparative Synthesis Examples 1 to 6 were measured by adding a dilution solvent (PGMEA) to 0.5 g of each compound and respectively stirring the mixtures (MIXROTAR VMR-5, Iuchi Seiei Dou Co.) at 100 rpm for one hour at 25° C., and the results are shown in Table 2. Solubility Evaluation Criteria Greater than or equal to 10 wt % of a compound (a solute) based on a total amount of a diluting solvent was dissolved: ∘ Less than 10 wt % of a compound (a solute) based on a total amount of a diluting solvent was dissolved: X

For `CCC(C)c1ccccc1Oc1c(Cl)c(Cl)c2c(c1Cl)C1=NC/2=N\c2c3c(Cl)c(Cl)c(Oc4ccccc4C(C)CC)c(Cl)c3c3[n]2[Zn][n]2/c(c4c(Cl)c(Cl)c(Oc5ccccc5C(C)CC)c(Cl)c4/c2=N/C2=NC(=N\3)/c3c(Cl)c(Oc4ccccc4C(C)CC)c(Cl)c(Cl)c32)=N\1` (stereo not shown) [Comparative Synthesis Example 1, reference compound], in data set [1], the “The shortest wavelength (nm) of full width at half maximum (FWHM) with respect to maximum absorption wavelength” value (“The shortest wavelength (nm)” for short) is 628 nm. Besides, the Solubility result in data set [2] was “X (Less than 10 wt % of a compound (a solute) based on a total amount of a diluting solvent was dissolved)”.

`CC(C)(C)c1ccc(Oc2c(Cl)c(Cl)c3c(c2Cl)C2=NC/3=N\c3c4c(Cl)c(Cl)c(Oc5ccc(C(C)(C)C)cc5C(C)(C)C)c(Cl)c4c4[n]3[Zn][n]3/c(c5c(Cl)c(Cl)c(Oc6ccc(C(C)(C)C)cc6C(C)(C)C)c(Cl)c5/c3=N/C3=NC(=N\4)/c4c(Cl)c(Oc5ccc(C(C)(C)C)cc5C(C)(C)C)c(Cl)c(Cl)c43)=N\2)c(C(C)(C)C)c1` [Comparative Synthesis Example 2, reference compound]: in data set [1], the “The shortest wavelength (nm)” value was determined as 624 nm. The Solubility entry in data set [2] is “X (Less than 10 wt % of a compound (a solute) based on a total amount of a diluting solvent was dissolved)”.

In the case of `COc1ccc(Oc2c(Cl)c(Cl)c3c(c2Cl)C2=NC/3=N\c3c4c(Cl)c(Oc5ccc(OC)cc5OC)c(Cl)c(Cl)c4c4[n]3[Zn][n]3/c(c5c(Cl)c(Cl)c(Oc6ccc(OC)cc6OC)c(Cl)c5/c3=N/C3=NC(=N\4)/c4c(Cl)c(Oc5ccc(OC)cc5OC)c(Cl)c(Cl)c43)=N\2)c(OC)c1` [Comparative Synthesis Example 3, reference compound], the “The shortest wavelength (nm)” value in data set [1] is listed as 623 nm. Besides, in data set [2], the Solubility result is “X (Less than 10 wt % of a compound (a solute) based on a total amount of a diluting solvent was dissolved)”.

Take `COc1ccc(Oc2c(Cl)c(Cl)c3c4[n]5c(c3c2Cl)/N=C2N=C(/N=c3/c6c(Cl)c(Cl)c(Cl)c(Cl)c6/c([n]3[Zn]5)=N/C3=NC(=N\4)/c4c(Cl)c(Cl)c(Cl)c(Cl)c43)c3c(Cl)c(Cl)c(Cl)c(Cl)c3\2)c(OC)c1` [Comparative Synthesis Example 4, reference compound]: in data set [1], the “The shortest wavelength (nm)” value was found to be 626 nm. Besides, the Solubility entry in data set [2] is listed as “X (Less than 10 wt % of a compound (a solute) based on a total amount of a diluting solvent was dissolved)”.

On to `CC(C)(C)c1ccccc1Oc1c(Cl)c(Cl)c2c(c1Cl)/C1=N/c3c4c(Cl)c(Oc5ccccc5C(C)(C)C)c(Cl)c(Cl)c4c4[n]3[Zn][n]3/c(c5cc(Cl)c(Cl)cc5/c3=N/C2=N1)=N\C1=NC(=N\4)/c2c(Cl)c(Cl)c(Cl)c(Cl)c21` [Comparative Synthesis Example 5, reference compound], for which the “The shortest wavelength (nm)” value in data set [1] is reported as 625 nm. In data set [2], the Solubility result is on record as “X (Less than 10 wt % of a compound (a solute) based on a total amount of a diluting solvent was dissolved)”.

On to `CC(C)(C)c1ccccc1Oc1c(Cl)c(Cl)c2c(c1Cl)/C1=N/c3c4c(Cl)c(Oc5ccccc5C(C)(C)C)c(Cl)c(Cl)c4c4[n]3[Zn][n]3/c(c5cc(Cl)ccc5/c3=N/C2=N1)=N\C1=NC(=N\4)/c2c(Cl)c(Cl)c(Cl)c(Cl)c21` [Comparative Synthesis Example 6, reference compound], for which the “The shortest wavelength (nm)” value in data set [1] came to 623 nm. Besides, the Solubility entry in data set [2] was “X (Less than 10 wt % of a compound (a solute) based on a total amount of a diluting solvent was dissolved)”.

For the compound `CC(C)c1ccccc1Oc1c(Cl)c(Cl)c2c(c1Cl)/C1=N/c3c4c(Cl)c(Oc5ccccc5C(C)C)c(Cl)c(Cl)c4c4[n]3[Zn][n]3/c(c5ccccc5/c3=N/C2=N1)=N\C1=NC(=N\4)/c2c(Cl)c(Cl)c(Cl)c(Cl)c21` [Synthesis Example 1], in data set [1], the “The shortest wavelength (nm)” value worked out at 616 nm. The Solubility result in data set [2] is recorded as “○”.

As for `CC(C)c1ccccc1Oc1c(Cl)c(Cl)c2c(c1Cl)/C1=N/c3c4c(Cl)c(Cl)c(Cl)c(Cl)c4c4[n]3[Zn][n]3/c(c5ccccc5/c3=N/C2=N1)=N\C1=NC(=N\4)/c2c(Cl)c(Cl)c(Cl)c(Cl)c21` [Synthesis Example 2], the “The shortest wavelength (nm)” value in data set [1] came out at 617 nm. For the same compound, the Solubility entry in data set [2] is “○”.

Regarding `CC(C)(C)c1ccccc1Oc1c(Cl)c(Cl)c2c(c1Cl)/C1=N/c3c4c(Cl)c(Oc5ccccc5C(C)(C)C)c(Cl)c(Cl)c4c4[n]3[Zn][n]3/c(c5ccccc5/c3=N/C2=N1)=N\C1=NC(=N\4)/c2c(Cl)c(Cl)c(Cl)c(Cl)c21` [Synthesis Example 3], the “The shortest wavelength (nm)” value in data set [1] turned out to be 618 nm. Moreover, the Solubility result in data set [2] is “○”.

Regarding `CC(C)(C)c1ccccc1Oc1c(Cl)c(Cl)c2c(c1Cl)/C1=N/c3c4c(Cl)c(Cl)c(Cl)c(Cl)c4c4[n]3[Zn][n]3/c(c5ccccc5/c3=N/C2=N1)=N\C1=NC(=N\4)/c2c(Cl)c(Cl)c(Cl)c(Cl)c21` [Synthesis Example 4], in data set [1], the “The shortest wavelength (nm)” value turned out to be 617 nm. Besides, in data set [2], the Solubility entry is recorded as “○”.

As for `Cc1ccccc1Oc1c(Cl)c(Cl)c2c(c1Cl)/C1=N/c3c4c(Cl)c(Oc5ccccc5C)c(Cl)c(Cl)c4c4[n]3[Zn][n]3/c(c5ccccc5/c3=N/C2=N1)=N\C1=NC(=N\4)/c2c(Cl)c(Cl)c(Cl)c(Cl)c21` [Synthesis Example 5], the “The shortest wavelength (nm)” value in data set [1] came to 618 nm. In addition, in data set [2], the Solubility entry is on record as “○”.

For the compound `Cc1cccc(C)c1Oc1c(Cl)c(Cl)c2c(c1Cl)/C1=N/c3c4c(Cl)c(Oc5c(C)cccc5C)c(Cl)c(Cl)c4c4[n]3[Zn][n]3/c(c5ccccc5/c3=N/C2=N1)=N\C1=NC(=N\4)/c2c(Cl)c(Cl)c(Cl)c(Cl)c21` [Synthesis Example 6], in data set [1], the “The shortest wavelength (nm)” value was determined as 618 nm. In data set [2], the Solubility entry is listed as “○”.

As to `Cc1cccc(C)c1Oc1c(Cl)c(Cl)c2c(c1Cl)/C1=N/c3c4c(Cl)c(Cl)c(Cl)c(Cl)c4c4[n]3[Zn][n]3/c(c5ccccc5/c3=N/C2=N1)=N\C1=NC(=N\4)/c2c(Cl)c(Cl)c(Cl)c(Cl)c21` [Synthesis Example 7], the “The shortest wavelength (nm)” value in data set [1] is 618 nm. In data set [2], the Solubility result was “○”.

With `CC(C)(C)c1ccc(Oc2c(Cl)c(Cl)c3c(c2Cl)/C2=N/c4c5c(Cl)c(Oc6ccc(C(C)(C)C)cc6C(C)(C)C)c(Cl)c(Cl)c5c5[n]4[Zn][n]4/c(c6ccccc6/c4=N/C3=N2)=N\C2=NC(=N\5)/c3c(Cl)c(Cl)c(Cl)c(Cl)c32)c(C(C)(C)C)c1` [Synthesis Example 8], the “The shortest wavelength (nm)” value in data set [1] was 616 nm. Further, the Solubility entry in data set [2] was “○”.

Turning to `CC(C)(C)c1ccc(Oc2c(Cl)c(Cl)c3c(c2Cl)/C2=N/c4c5c(Cl)c(Cl)c(Cl)c(Cl)c5c5[n]4[Zn][n]4/c(c6ccccc6/c4=N/C3=N2)=N\C2=NC(=N\5)/c3c(Cl)c(Cl)c(Cl)c(Cl)c32)c(C(C)(C)C)c1` [Synthesis Example 9], the “The shortest wavelength (nm)” value in data set [1] worked out at 618 nm. Further, the Solubility entry in data set [2] is “○”.

On to `Cc1ccc(Oc2c(Cl)c(Cl)c3c(c2Cl)/C2=N/c4c5c(Cl)c(Oc6ccc(C)cc6C(C)(C)C)c(Cl)c(Cl)c5c5[n]4[Zn][n]4/c(c6ccccc6/c4=N/C3=N2)=N\C2=NC(=N\5)/c3c(Cl)c(Cl)c(Cl)c(Cl)c32)c(C(C)(C)C)c1` [Synthesis Example 10], for which, in data set [1], the “The shortest wavelength (nm)” value came to 616 nm. Further, in data set [2], the Solubility entry is recorded as “○”.

In the case of `Cc1ccc(Oc2c(Cl)c(Cl)c3c(c2Cl)/C2=N/c4c5c(Cl)c(Oc6ccc(C)cc6C(C)(C)C)c(Cl)c(Cl)c5c5[n]4[Zn][n]4/c(c6ccccc6/c4=N/C3=N2)=N\C2=NC(=N\5)/c3ccccc32)c(C(C)(C)C)c1` [Synthesis Example 11], the “The shortest wavelength (nm)” value in data set [1] is on record as 611 nm. In addition, the Solubility result in data set [2] is “○”.

For `CC(C)(C)COc1c(Cl)c(Cl)c2c(c1Cl)/C1=N/c3c4c(Cl)c(OCC(C)(C)C)c(Cl)c(Cl)c4c4[n]3[Zn][n]3/c(c5ccccc5/c3=N/C2=N1)=N\C1=NC(=N\4)/c2c(Cl)c(Cl)c(Cl)c(Cl)c21` [Synthesis Example 12], the “The shortest wavelength (nm)” value in data set [1] came out at 617 nm. Further, the Solubility result in data set [2] was “○”.

Take `CC(C)(C)COc1c(Cl)c(Cl)c2c(c1Cl)/C1=N/c3c4c(Cl)c(Cl)c(Cl)c(Cl)c4c4[n]3[Zn][n]3/c(c5ccccc5/c3=N/C2=N1)=N\C1=NC(=N\4)/c2c(Cl)c(Cl)c(Cl)c(Cl)c21` [Synthesis Example 13]: the “The shortest wavelength (nm)” value in data set [1] worked out at 618 nm. Moreover, in data set [2], the Solubility entry is “○”.

With `CC(C)(C)COc1c(Cl)c(Cl)c2c(c1Cl)/C1=N/c3c4c(Cl)c(OCC(C)(C)C)c(Cl)c(Cl)c4c4[n]3[Zn][n]3/c(c5ccccc5/c3=N/C2=N1)=N\C1=NC(=N\4)/c2ccccc21` [Synthesis Example 14], the “The shortest wavelength (nm)” value in data set [1] is 611 nm. For the same compound, the Solubility entry in data set [2] is “○”.
